# Values of other authors as cited in patent US20100035998A1, “COMBINATION S-NITROSOTHIOL PHARMACEUTICAL PRODUCTS FOR RESTORING NORMAL BREATHING RHYTHMS” (Galleon Pharmaceutical, Inc, priority 2005, published 2010).
# Legend:
# [1] = system: upper airway tone; details: animals
# [2] = system: central apnea patients; details: low doses
# [3] = system: patients that had predominantly obstructive sleep apnea; details: low doses; patients with predominantly obstructive sleep apnea
Structure (SMILES),effect on tone of the upper airway [1],apnea episodes after one month of treatment ([2]; 25.5 pre-treatment),decrease in apnea episodes ([2]; pre-treatment vs after one month of treatment) [%],reduction in apnea episodes [3]
CN1CCN2c3ncccc3Cc3ccccc3C2C1 (stereo not shown) [Mirtazapine],help restore the tone of the upper airway to prevent collapse,,,
CC(=O)Nc1nnc(S(N)(=O)=O)s1 [acetazolamide],,6.8,73,about 25%
